How the values were obtained:
[1] = target: human D3 dopamine receptor (Homo sapiens (Human), UniProt P35462); assay: Radioligand binding (125I-IABN competition), D3; details: for Ki: 125I-IABN competition, HEK cell membranes expressing human D3; for D2/D3 (D3 selectivity ratio, D2 Ki/D3 Ki): calculated D2 Ki/D3 Ki
Method: (§1) The affinities of the target compounds were determined using radioligand binding experiments. […] Competition curves were modeled for a single site. Data from competition dose-response curves were analyzed using Tablecurve program (Jandel). IC50 values were converted to equilibrium dissociation constants (Ki values) using the Cheng and Prusoff correction.

[2] = target: human D2-long dopamine receptor (Homo sapiens (Human), UniProt P14416); assay: Radioligand binding (125I-IABN competition), D2; details: HEK cell membranes expressing human D2-long
Chain of human D2-long dopamine receptor (P14416 whole entry): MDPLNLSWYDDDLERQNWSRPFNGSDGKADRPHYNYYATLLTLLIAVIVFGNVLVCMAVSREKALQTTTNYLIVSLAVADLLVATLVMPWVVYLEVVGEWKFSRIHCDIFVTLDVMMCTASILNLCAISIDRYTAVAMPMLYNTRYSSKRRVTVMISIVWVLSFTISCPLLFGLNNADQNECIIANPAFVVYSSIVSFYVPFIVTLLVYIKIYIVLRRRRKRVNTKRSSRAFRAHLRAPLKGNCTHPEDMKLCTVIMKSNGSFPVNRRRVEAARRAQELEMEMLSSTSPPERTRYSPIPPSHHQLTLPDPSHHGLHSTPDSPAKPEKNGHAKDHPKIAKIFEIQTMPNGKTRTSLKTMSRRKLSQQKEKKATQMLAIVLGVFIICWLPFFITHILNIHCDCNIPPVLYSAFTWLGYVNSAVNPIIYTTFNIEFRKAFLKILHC
Method: as §1

Chain of human D3 dopamine receptor (P35462 whole entry): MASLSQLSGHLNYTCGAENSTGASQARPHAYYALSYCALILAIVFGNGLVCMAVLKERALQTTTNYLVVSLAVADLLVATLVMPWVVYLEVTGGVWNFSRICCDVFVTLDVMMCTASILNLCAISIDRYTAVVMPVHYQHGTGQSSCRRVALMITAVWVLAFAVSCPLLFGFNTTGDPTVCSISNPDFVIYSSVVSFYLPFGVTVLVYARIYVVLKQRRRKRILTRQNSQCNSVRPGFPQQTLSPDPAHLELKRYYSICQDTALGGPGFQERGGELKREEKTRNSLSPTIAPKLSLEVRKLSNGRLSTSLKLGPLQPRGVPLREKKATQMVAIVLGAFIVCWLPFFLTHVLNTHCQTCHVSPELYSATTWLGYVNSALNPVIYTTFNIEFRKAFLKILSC

Structure (SMILES)	Ki [1]	D2/D3 (D3 selectivity ratio, D2 Ki/D3 Ki) [1]	Ki [2]
CC(C)(C)c1nc(N2CCN(CCCCNC(=O)N3CCN(c4cccc(Cl)c4)CC3)CC2)cc(C(F)(F)F)n1 [Compound 15, N-(4-(4-(2-(tert-Butyl)-6-(trifluoromethyl)pyrimidin-4-yl)piperazin-1-yl)butyl)-4-(3-chlorophenyl)piperazine-1-carboxamide]	19.3 ± 1.6 nM	30	582 ± 127 nM
CC(C)(C)c1nc(N2CCN(CCCCNC(=O)N3CCCc4ccccc43)CC2)cc(C(F)(F)F)n1 [Compound 70, N-(4-(4-(2-(tert-Butyl)-6-(trifluoromethyl)pyrimidin-4-yl)piperazin-1-yl)butyl)-3,4-dihydroquinoline-1(2H)-carboxamide]	33.5 ± 8 nM	6	215 ± 36.3 nM
CC(C)(C)c1nc(N2CCN(CCCCNC(=O)N3CCC(C#N)(c4ccccc4)CC3)CC2)cc(C(F)(F)F)n1 [Compound 17, N-(4-(4-(2-(tert-Butyl)-6-(trifluoromethyl)pyrimidin-4-yl)piperazin-1-yl)butyl)-4-cyano-4-phenylpiperidine-1-carboxamide]	16 nM	52	843 ± 95 nM
CC(C)(C)c1nc(N2CCN(CCCCNC(=O)N3CCCN(c4ccccc4)CC3)CC2)cc(C(F)(F)F)n1 [Compound 81, N-(4-(4-(2-(tert-Butyl)-6-(trifluoromethyl)pyrimidin-4-yl)piperazin-1-yl)butyl)-4-phenyl-1,4-diazepane-1-carboxamide]	44.2 ± 8.2 nM	11	507 ± 16.6 nM
O=C(NCCCCN1CCN(c2ncnc3ccccc23)CC1)c1cn2ccccc2n1 [Compound 127, N-(4-(4-(Quinazolin-4-yl)piperazin-1-yl)butyl)imidazo[1,2-a]pyridine-2-carboxamide]	253 nM	4	1130 ± 63.8 nM
CC(C)(C)c1nc(N2CCN(CCCCNC(=O)N3CCC(c4ccc(Cl)cc4)CC3)CC2)cc(C(F)(F)F)n1 [Compound 16, N-(4-(4-(2-(tert-Butyl)-6-(trifluoromethyl)pyrimidin-4-yl)piperazin-1-yl)butyl)-4-(4-chlorophenyl)piperidine-1-carboxamide]	21.2 ± 1.4 nM	42	894 ± 200 nM
O=C(NCCCCN1CCN(c2ccnc3ccccc23)CC1)c1nc2ccccn2c1Cl [Compound 129, 3-Chloro-N-(4-(4-(quinolin-4-yl)piperazin-1-yl)butyl)imidazo[1,2-a]pyridine-2-carboxamide]	323 ± 75 nM	11	3560 ± 1950 nM
CC(C)(C)c1nc(N2CCN(CCCCNC(=O)N3CCc4[nH]c5ccc(Cl)cc5c4C3)CC2)cc(C(F)(F)F)n1 [Compound 91, N-(4-(4-(2-(tert-Butyl)-6-(trifluoromethyl)pyrimidin-4-yl)piperazin-1-yl)butyl)-8-chloro-3,4-dihydro-1H-pyrido[4,3-b]indole-2(5H)-carboxamide]	200 ± 47.6 nM	6	1210 ± 211 nM
CC(C)(C)c1nc(N2CCN(CCCCNC(=O)N3CCN(c4cc(C(F)(F)F)nc(C(C)(C)C)n4)CC3)CC2)cc(C(F)(F)F)n1 [Compound 62, 4-(2-(tert-Butyl)-6-(trifluoromethyl)pyrimidin-4-yl)-N-(4-(4-(2-(tert-butyl)-6-(trifluoromethyl)pyrimidin-4-yl)piperazin-1-yl)butyl)piperazine-1-carboxamide]	106 ± 5.5 nM	14	1520 ± 344 nM
CC(C)(C)c1nc(N2CCN(CCCCNC(=O)N3CCN(c4cccc(-c5ccccc5)c4)CC3)CC2)cc(C(F)(F)F)n1 [Compound 44, 4-([1,1′-Biphenyl]-3-yl)-N-(4-(4-(2-(tert-butyl)-6-(trifluoromethyl)pyrimidin-4-yl)piperazin-1-yl)butyl)piperazine-1-carboxamide]	49.3 ± 11.2 nM	22	1110 ± 104 nM
CC(C)(C)c1nc(N2CCN(CCCCNC(=O)N3CCN(c4ccccc4-c4ccccc4)CC3)CC2)cc(C(F)(F)F)n1 [Compound 43, 4-([1,1′-Biphenyl]-2-yl)-N-(4-(4-(2-(tert-butyl)-6-(trifluoromethyl)pyrimidin-4-yl)piperazin-1-yl)butyl)piperazine-1-carboxamide]	15 ± 3.1 nM	68	1020 ± 75.6 nM
COc1ccc2[nH]c3c(c2c1)CN(C(=O)NCCCCN1CCN(c2cc(C(F)(F)F)nc(C(C)(C)C)n2)CC1)CC3 [Compound 92, N-(4-(4-(2-(tert-Butyl)-6-(trifluoromethyl)pyrimidin-4-yl)piperazin-1-yl)butyl)-8-methoxy-3,4-dihydro-1H-pyrido[4,3-b]indole-2(5H)-carboxamide]	166 ± 4.1 nM	8	1350 ± 241 nM
CC(C)(C)c1nc(N2CCN(CCCCNC(=O)N3CCN(C(=O)c4ccccc4)CC3)CC2)cc(C(F)(F)F)n1 [Compound 37, 4-Benzoyl-N-(4-(4-(2-(tert-butyl)-6-(trifluoromethyl)pyrimidin-4-yl)piperazin-1-yl)butyl)piperazine-1-carboxamide]	29 ± 2.4 nM	34	998 ± 252 nM
O=C(NCCCCN1CCN(c2cc(C(F)(F)F)nc3ccccc23)CC1)N1CCC(c2ccccc2)CC1 [Compound 100, 4-Phenyl-N-(4-(4-(2-(trifluoromethyl)quinolin-4-yl)piperazin-1-yl)butyl)piperidine-1-carboxamide]	5320 ± 2220 nM	>18	> 100000 nM
CC(C)(C)c1cc(N2CCN(CCCCNC(=O)N3CCc4[nH]c5ccccc5c4C3)CC2)nc(C(C)(C)C)n1 [Compound 56, N-(4-(4-(2,6-Di-tert-butylpyrimidin-4-yl)piperazin-1-yl)butyl)-3,4-dihydro-1H-pyrido[4,3-b]indole-2(5H)-carboxamide]	9.5 ± 1.7 nM	33	308 ± 29.9 nM
CC(C)(C)c1nc(N2CCN(CCCCNC(=O)N3CCN(C4CC4)CC3Cc3ccccc3)CC2)cc(C(F)(F)F)n1 (centres unmarked) [Compound 67, 2-Benzyl-N-(4-(4-(2-(tert-butyl)-6-(trifluoromethyl)pyrimidin-4-yl)piperazin-1-yl)butyl)-4-cyclopropylpiperazine-1-carboxamide]	73.8 ± 17.5 nM	8	626 ± 143 nM
CC(C)(C)c1nc(N2CCN(CCCCNC(=O)N3CCCC(c4ccccc4)CC3)CC2)cc(C(F)(F)F)n1 (centres unmarked) [Compound 82, N-(4-(4-(2-(tert-Butyl)-6-(trifluoromethyl)pyrimidin-4-yl)piperazin-1-yl)butyl)-4-phenylazepane-1-carboxamide]	129 ± 21.9 nM	5	668 ± 135 nM
Cc1nc(N2CCN(CCCCNC(=O)N3CCc4[nH]c5ccc(C(F)(F)F)cc5c4C3)CC2)cc(C(C)(C)C)n1 [Compound 98, N-(4-(4-(6-(tert-Butyl)-2-methylpyrimidin-4-yl)piperazin-1-yl)butyl)-8-(trifluoromethyl)-3,4-dihydro-1H-pyrido[4,3-b]indole-2(5H)-carboxamide]	1020 ± 201 nM	6	6400 ± 1100 nM
CC(C)(C)c1nc(N2CCN(CCCCNC(=O)N3CCC(n4c(=O)[nH]c5ccccc54)CC3)CC2)cc(C(F)(F)F)n1 [Compound 53, N-(4-(4-(2-(tert-Butyl)-6-(trifluoromethyl)pyrimidin-4-yl)piperazin-1-yl)butyl)-4-(2-oxo-2,3-dihydro-1H-benzo[d]imidazol-1-yl)piperidine-1-carboxamide]	35.2 ± 8.2 nM	20	713 ± 78.3 nM
O=C(NCCCCN1CCN(c2cccc(C(F)(F)F)c2)CC1)N1CCN(c2ccccc2)CC1 [Compound 2, 4-Phenyl-N-(4-(4-(3-(trifluoromethyl)phenyl)piperazin-1-yl)butyl)piperazine-1-carboxamide]	14.2 ± 2.9 nM	21	303 ± 10.4 nM
CC(C)(C)c1nc(N2CCN(CCCCNC(=O)N3CCN(c4ccc(Cl)cc4)CC3)CC2)cc(C(F)(F)F)n1 [Compound 57, N-(4-(4-(2-(tert-Butyl)-6-(trifluoromethyl)pyrimidin-4-yl)piperazin-1-yl)butyl)-4-(4-chlorophenyl)piperazine-1-carboxamide]	35.5 ± 7.2 nM	18	644 ± 6.6 nM
O=C(NCCCCN1CCN(c2ccc3ccccc3n2)CC1)C1CCC(c2ccccc2)CC1 (centres unmarked) [Compound 106, 4-Phenyl-N-(4-(4-(quinolin-2-yl)piperazin-1-yl)butyl)cyclohexanecarboxamide]	62 ± 12.7 nM	50	3090 ± 768 nM
CC(C)(C)c1nc(N2CCN(CCCCNC(=O)C3CCN(Cc4ccccc4)CC3)CC2)cc(C(F)(F)F)n1 [Compound 109, 1-Benzyl-N-(4-(4-(2-(tert-butyl)-6-(trifluoromethyl)pyrimidin-4-yl)piperazin-1-yl)butyl)piperidine-4-carboxamide]	35.6 ± 1.4 nM		337 nM
O=C(NCCCCN1CCN(c2ccnc3ccccc23)CC1)c1nc2ccccn2c1Br [Compound 128, 3-Bromo-N-(4-(4-(quinolin-4-yl)piperazin-1-yl)butyl)imidazo[1,2-a]pyridine-2-carboxamide]	285 ± 77 nM	8	2330 ± 785 nM
CC(C)(C)c1nc(N2CCN(CCCCNC(=O)N3CCN(c4ccc(-c5ccccc5)cc4)CC3)CC2)cc(C(F)(F)F)n1 [Compound 45, 4-([1,1′-Biphenyl]-4-yl)-N-(4-(4-(2-(tert-butyl)-6-(trifluoromethyl)pyrimidin-4-yl)piperazin-1-yl)butyl)piperazine-1-carboxamide]	25.1 ± 5.5 nM	25	621 ± 143 nM
